Where two headings read alike, the source gives them in different places.
Legend:
[1] = Dynamic vapor sorption (DVS); type: physicochemical; settings: for DVS isotherm type / hygroscopicity: 0 to 90 to 0% RH; for DVS weight gain at 70% RH: 70% RH (printed 70° RH in Example 8); for DVS desorption behaviour (hysteresis): during desorption
In short: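 At 25 °C, 20 to 50 mg sample was dried at 0% RH for 60 minutes, then humidity raised 0-30% in 5% steps and 30-90% in 10% steps, with matching desorption back to 0%. Equilibrium set at dm/dt 0.002%/min; amorphous material was run with fixed 1 hour steps.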

[2] = Solubility determinations in SIF buffers (FaSSIF, FeSSIF, FaSSGF); type: physicochemical; settings: for Solubility in SIF buffers: FaSSIF, FeSSIF and FaSSGF, 37° C., 24 h, concentration tested 30 mg/ml
In short: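 Salt forms suspended at 30 mg/ml in FaSSIF, FeSSIF or FaSSGF at 37° C. for 24 h, pH kept in range with 1 M HCl or NaOH. Supernatants sampled at 1, 3, 6 and 24 h, centrifuged and quantified by HPLC as compound 1 free base against amorphous compound 1 calibrants; pellets checked by XRPD for form change.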

[3] = Binary solvent evaporation crystallization of Compound 1 HCl
Method: A binary solvent evaporation crystallization panel was performed. Separate portions of Compound 1 HCl 50 mg) were dissolved in a primary solvent of water (500 μl per sample) and a secondary solvent—one of either acetone (250 μl, A), acetonitrile (250 μl, B), THF (250 μl, C) and methanol (250 μl, D).
Each vial was capped with aluminium foil, pieced and allowed to stand undisturbed until the evaporation was completed. Experimental details are included in Table 109.

[4] = type: physicochemical; settings: for Change of purity profile / CP: 10-day time point
[5] = Amorphous forms and thermal study (glass temperature Tg by DSC/TGA); type: physicochemical; settings: for Glass temperatures (Tg): amorphous form
[6] = Amorphisation activity: Antisolvent/N2 flow, 50 mg
[7] = Amorphisation activity: Freeze dry, 50 mg
[8] = Amorphisation activity: HFIPA Evaporation o/n, 50 mg
[9] = Amorphisation activity: HFIPA Evaporation, 50 mg

COc1ccc2c(ccn2C[C@@H](C)N(C)C)c1.Cl [Compound 1 HCl]
DVS isotherm type / hygroscopicity [1]: slightly hygroscopic isotherm | DVS isotherm type / hygroscopicity ([1]; listed as Compound 1·HCl): slightly hygroscopic isotherm | DVS isotherm type / hygroscopicity ([1]; listed as compound 1·HCl): slightly hygroscopic | DVS weight gain at 70% RH [1]: ca. 0.2 % w/w | DVS mono and multilayer sorption >80% RH ([1]; >80% RH): ca. 0.5 % w.w | DVS desorption behaviour (hysteresis) [1]: small water affinity hysteresis | DVS desorption behaviour (hysteresis) ([1]; listed as Compound 1·HCl): small water affinity hysteresis | Disproportionation in SIF buffers [2]: disproportionation not observed | Solubility in SIF buffers ([2]; listed as HC): freely soluble | Solubility in SIF buffers ([2]; listed as compound 1·HCl): Freely soluble | Observations (t = 14 days @ ambient) ([3]; A: Water 10.0 vol + Acetone 250 μL): Solid | Observations (t = 14 days @ ambient) ([3]; B: Water 10.0 vol + Acetonitrile 250 μL): Solid | Observations (t = 14 days @ ambient) ([3]; C: Water 10.0 vol + THF 250 μL): Solid | Observations (t = 14 days @ ambient) ([3]; D: Water 10.0 vol + Methanol 250 μL): Solid | Change of purity profile / CP ([4]; 40° C./75% RH): no reduction in CP | Change of purity profile / CP ([4]; 40° C./75% RH, listed as compound 1·HCl): little changed | CP ([4]; 40° C./75% RH, over 10 days): 99.60 % area | Stability at 40° C./75% RH ([4]; 10 days, listed as compound 1·HCl): Chemically and physically stable | Form by XRPD [5, 6]: Form A | Outcome [5, 6]: Crystalline | Form by XRPD [5, 7]: Form A | Outcome [5, 7]: Crystalline | Form by XRPD [5, 8]: Form A | Outcome [5, 8]: Crystalline | Form by XRPD [5, 9]: Form A | Outcome [5, 9]: Crystalline | Outcome ([5]; Hot plate heat-up, 20 to 236 ° C.): Form A | Outcome ([5]; Hot stage plate heat-up, 20 to 260 ° C.): Amorphous | Outcome ([5]; Hot stage plate heat-up, 20 to 275 ° C.): Amorphous | Outcome ([5]; Open Pan DSC, 20 to 220 to −20, O/N 20 to 250 ° C.): Amorphous | Outcome ([5]; Sealed DSC, 20 to 220 to −20 to 250 ° C.): Amorphous | Outcome ([5]; TGA, 20 to 220 to −20 to 250 ° C.): Amorphous | Glass temperatures (Tg) [5]: 37 °C

COc1ccc2c(ccn2C[C@@H](C)[NH+](C)C)c1.O=C(O)/C=C/C(=O)O [Compound 1 fumarate, (R)-1-(5-methoxy-1H-indol-1-yl)-N,N-dimethylpropan-2-amine fumarate]
RH above which pronounced mono, multilayer sorption and probable deliquescence occurred [1]: > 80 % RH | DVS isotherm type / hygroscopicity ([1]; listed as Compound 1·Fumarate, fumarate): deliquescent type isotherm | DVS isotherm type / hygroscopicity ([1]; listed as compound 1·Fumarate, fumarate): deliquescent | DVS weight gain at 70% RH [1]: ca. 1 % w/w | Solubility in SIF buffers [2]: freely soluble | Change of purity profile / CP ([4]; 40° C./75% RH): reduction in CP | HPLC peak RRT 0.93 ([4]; salt before storage (t = 0)): 0.36 | HPLC peak RRT 1.00 (reference peak) ([4]; salt before storage (t = 0)): 98.38 | HPLC peak RRT 1.11 ([4]; salt before storage (t = 0)): 0.79 | HPLC peak RRT 1.15 ([4]; salt before storage (t = 0)): 0.27 | HPLC peak RRT 1.17 ([4]; salt before storage (t = 0)): 0.13 | HPLC peak RRT 1.19 ([4]; salt before storage (t = 0)): 0.08 | HPLC peak RRT 0.93 ([4]; t = 5 d at 75% RH at 40° C.): 0.64 | HPLC peak RRT 0.98 ([4]; t = 5 d at 75% RH at 40° C.): 0.05 | HPLC peak RRT 1.00 (reference peak) ([4]; t = 5 d at 75% RH at 40° C.): 96.82 | HPLC peak RRT 1.08 ([4]; t = 5 d at 75% RH at 40° C.): 0.05 | HPLC peak RRT 1.11 ([4]; t = 5 d at 75% RH at 40° C.): 1.06 | HPLC peak RRT 1.15 ([4]; t = 5 d at 75% RH at 40° C.): 0.60 | HPLC peak RRT 1.17 ([4]; t = 5 d at 75% RH at 40° C.): 0.02 | HPLC peak RRT 1.18 ([4]; t = 5 d at 75% RH at 40° C.): 0.27 | HPLC peak RRT 1.20 ([4]; t = 5 d at 75% RH at 40° C.): 0.20 | HPLC peak RRT 1.27 ([4]; t = 5 d at 75% RH at 40° C.): 0.05 | HPLC peak RRT 1.28 ([4]; t = 5 d at 75% RH at 40° C.): 0.03 | HPLC peak RRT 1.39 ([4]; t = 5 d at 75% RH at 40° C.): 0.10 | HPLC peak RRT 1.43 ([4]; t = 5 d at 75% RH at 40° C.): 0.06 | HPLC peak RRT 1.47 ([4]; t = 5 d at 75% RH at 40° C.): 0.06 | HPLC peak RRT 0.93 ([4]; t = 10 d at 75% RH at 40° C.): 0.61 | HPLC peak RRT 0.98 ([4]; t = 10 d at 75% RH at 40° C.): 0.07 | HPLC peak RRT 1.00 (reference peak) ([4]; t = 10 d at 75% RH at 40° C.): 97.08 | HPLC peak RRT 1.08 ([4]; t = 10 d at 75% RH at 40° C.): 0.04 | HPLC peak RRT 1.11 ([4]; t = 10 d at 75% RH at 40° C.): 0.96 | HPLC peak RRT 1.13 ([4]; t = 10 d at 75% RH at 40° C.): 0.05 | HPLC peak RRT 1.15 ([4]; t = 10 d at 75% RH at 40° C.): 0.52 | HPLC peak RRT 1.18 ([4]; t = 10 d at 75% RH at 40° C.): 0.09 | HPLC peak RRT 1.19 ([4]; t = 10 d at 75% RH at 40° C.): 0.12 | HPLC peak RRT 1.20 ([4]; t = 10 d at 75% RH at 40° C.): 0.15 | HPLC peak RRT 1.27 ([4]; t = 10 d at 75% RH at 40° C.): 0.03 | HPLC peak RRT 1.28 ([4]; t = 10 d at 75% RH at 40° C.): 0.05 | HPLC peak RRT 1.34 ([4]; t = 10 d at 75% RH at 40° C.): 0.04 | HPLC peak RRT 1.39 ([4]; t = 10 d at 75% RH at 40° C.): 0.08 | HPLC peak RRT 1.43 ([4]; t = 10 d at 75% RH at 40° C.): 0.04 | HPLC peak RRT 1.45 ([4]; t = 10 d at 75% RH at 40° C.): 0.03 | HPLC peak RRT 1.47 ([4]; t = 10 d at 75% RH at 40° C.): 0.05 | Form by XRPD [5, 6]: Amorphous | Outcome [5, 6]: Gum | Form by XRPD [5, 7]: Form A | Outcome [5, 7]: Crystalline | Outcome ([5]; Amorphisation activity: Rotary Vac (Methanol), 50 mg): Gum | Outcome ([5]; Hot plate heat-up, 20 to 165 ° C.): Amorphous | Outcome ([5]; Hot stage plate heat-up, 20 to 165 ° C.): Amorphous | Outcome ([5]; Open Pan DSC, 20 to 145 to −20, O/N 20 to 230 ° C.): Amorphous | Outcome ([5]; Sealed DSC, 20 to 145 to −20 to 230 ° C.): Amorphous | Outcome ([5]; TGA, 20 to 145 to −20 to 230 ° C.): Amorphous | Glass temperatures (Tg) [5]: 24 °C

From patent US12319652B2, “Salts and solid forms of (R)-1-(5-methoxy-1H-indol-1-yl)-N,N-dimethylpropan-2-amine” (priority 2021, dated 2025)
